{"source": "patent US12102619B2", "about": "(Jazz Pharmaceuticals Research UK Limited, priority 2020, dated 2024)", "key": {"[1]": {"conditions": "once-daily dosing; cited from earlier work"}, "clinical": {"assay": "clinical", "conditions": "human, in vivo, 5 mg", "description": "The duration of the trial was approximately 9 weeks, which includes a screening period (up to 4 weeks), a treatment period (18 days) and a safety follow-up period (2 weeks). After signing the informed consent form (ICF), participants enter the screening period (Day −28 to −1). On Day −1, screened participants who continued to meet eligibility criteria were admitted to the clinical research unit (CRU) at approximately […] and enrolled into the trial. On Day 1, participants received everolimus, 30 minutes after starting a standard meal. […] On Day 18, participants were discharged from the CRU once all assessments were completed.\nThe time of the meal consumed at the site during days of IMP administration was recorded, as was the dose and dosing time of IMP (as appropriate) relative to sampling times.\nLog transformed Cmax, AUC(0-∞), and AUC(0-t) parameters for everolimus were analyzed using a linear mixed-effects model with a fixed effect for treatment and a random effect for participant. The treatment differences are back transformed to present the ratios of geometric means and the corresponding 90% confidence intervals (CIs)."}, "CYP3A4": {"target": "CYP3A4 (Homo sapiens, UniProt P08684)", "sequence (P08684 whole entry)": "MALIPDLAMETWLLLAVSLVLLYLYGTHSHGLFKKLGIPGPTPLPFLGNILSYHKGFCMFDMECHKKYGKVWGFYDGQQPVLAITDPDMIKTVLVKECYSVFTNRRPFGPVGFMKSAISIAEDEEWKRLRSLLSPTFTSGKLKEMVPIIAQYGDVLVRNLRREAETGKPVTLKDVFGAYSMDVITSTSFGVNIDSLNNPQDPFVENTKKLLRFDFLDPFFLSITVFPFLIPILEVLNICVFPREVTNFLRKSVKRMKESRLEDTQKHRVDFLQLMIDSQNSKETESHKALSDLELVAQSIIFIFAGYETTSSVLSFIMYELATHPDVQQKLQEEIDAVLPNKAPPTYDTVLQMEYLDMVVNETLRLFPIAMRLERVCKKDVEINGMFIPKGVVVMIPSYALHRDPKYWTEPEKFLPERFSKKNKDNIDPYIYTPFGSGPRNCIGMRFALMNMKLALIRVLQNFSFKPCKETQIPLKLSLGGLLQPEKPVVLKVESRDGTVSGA", "conditions": "oral dose of midazolam coadministered; cited from earlier work"}, "[2]": {"conditions": "cited from earlier work"}, "[3]": {"conditions": "coadministered P-gp and CYP3A4 inhibitor; cited from earlier work"}, "[4]": {"assay": "Adverse effects of elevated CBD levels", "format": "in vivo", "description": "Transaminase can lead to hepatic dysfunction, including unexplained nausea, vomiting, right upper quadrant abdominal pain, fatigue, anorexia, or jaundice and/or dark urine. Elevated exposure of everolimus exposure is known to cause non-infectious pneumonitis, infections, severe hypersensitivity to reactions, angioedema, stomatitis, renal failure, impaired wound healing, metabolic disorders, myelosuppression, risk of infection or reduced immune response with vaccination, embryo-fetal toxicity, and stomatis, respiratory tract infection. The methods of the disclosure reduce the incidence of one or more of the above side effects."}, "[5]": {"assay": "Clinical DDI study of steady-state CBD with orally dosed midazolam (GWEP17028)", "format": "in vivo", "conditions": "CBD at steady-state (750 mg bid, fed state), dosed concomitantly", "description": "The everolimus label contains no instructions to adjust the dose when administered with a P-gp inhibitor that is not also a moderate or strong CYP3A4 inhibitor."}, "[6]": {"assay": "Steady state AUC of CBD by daily dose", "conditions": "human, in vivo", "description": "In some embodiments, the AUCt1-t2 is reported as a geometric mean (% coefficient of variation)."}, "BSEP": {"target": "BSEP (Homo sapiens, UniProt O95342)", "sequence (O95342 whole entry)": "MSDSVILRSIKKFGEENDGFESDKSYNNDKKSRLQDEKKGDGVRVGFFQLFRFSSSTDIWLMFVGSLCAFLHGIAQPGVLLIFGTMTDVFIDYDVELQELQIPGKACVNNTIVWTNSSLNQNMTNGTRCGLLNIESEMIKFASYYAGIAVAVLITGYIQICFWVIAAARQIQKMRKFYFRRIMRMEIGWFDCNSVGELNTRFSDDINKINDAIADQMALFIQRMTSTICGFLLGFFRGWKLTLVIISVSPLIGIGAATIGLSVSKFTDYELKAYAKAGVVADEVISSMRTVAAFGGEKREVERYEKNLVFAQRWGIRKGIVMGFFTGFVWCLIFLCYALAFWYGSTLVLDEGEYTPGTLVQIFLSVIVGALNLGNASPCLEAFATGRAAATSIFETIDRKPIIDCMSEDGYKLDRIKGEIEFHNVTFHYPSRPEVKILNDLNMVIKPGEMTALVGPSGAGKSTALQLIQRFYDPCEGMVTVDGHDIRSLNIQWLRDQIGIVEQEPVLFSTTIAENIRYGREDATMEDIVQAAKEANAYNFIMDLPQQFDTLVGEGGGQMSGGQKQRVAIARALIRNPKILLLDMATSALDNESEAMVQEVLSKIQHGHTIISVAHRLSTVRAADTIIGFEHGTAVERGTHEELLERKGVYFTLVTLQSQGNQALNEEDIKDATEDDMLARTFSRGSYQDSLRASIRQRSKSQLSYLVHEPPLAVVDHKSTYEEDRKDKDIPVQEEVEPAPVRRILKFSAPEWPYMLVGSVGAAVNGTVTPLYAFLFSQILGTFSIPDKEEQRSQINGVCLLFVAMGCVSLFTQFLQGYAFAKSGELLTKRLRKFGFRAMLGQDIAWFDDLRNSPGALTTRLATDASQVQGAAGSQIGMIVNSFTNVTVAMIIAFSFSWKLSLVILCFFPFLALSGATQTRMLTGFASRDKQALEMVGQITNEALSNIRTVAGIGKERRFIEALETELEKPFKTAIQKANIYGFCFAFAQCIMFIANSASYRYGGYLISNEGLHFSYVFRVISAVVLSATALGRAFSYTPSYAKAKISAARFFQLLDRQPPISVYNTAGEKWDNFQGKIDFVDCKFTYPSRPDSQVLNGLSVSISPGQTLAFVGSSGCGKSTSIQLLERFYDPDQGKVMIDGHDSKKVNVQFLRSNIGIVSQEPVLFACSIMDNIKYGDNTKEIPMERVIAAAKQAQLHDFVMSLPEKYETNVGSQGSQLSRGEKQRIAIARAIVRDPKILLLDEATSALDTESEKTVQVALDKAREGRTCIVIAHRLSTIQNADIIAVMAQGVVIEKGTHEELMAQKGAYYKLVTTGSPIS", "assay": "Inhibition of BSEP-mediated transport", "format": "in vitro ADME", "conditions": "at clinically relevant concentrations", "description": "(§1) The pharmacological properties of CBD are not fully elucidated. […] 7-COOH-CBD is an inhibitor of transport mediated via BCRP and BSEP at clinically relevant concentrations."}, "P-gp": {"target": "P-gp (Homo sapiens, UniProt P08183)", "sequence (P08183 whole entry)": "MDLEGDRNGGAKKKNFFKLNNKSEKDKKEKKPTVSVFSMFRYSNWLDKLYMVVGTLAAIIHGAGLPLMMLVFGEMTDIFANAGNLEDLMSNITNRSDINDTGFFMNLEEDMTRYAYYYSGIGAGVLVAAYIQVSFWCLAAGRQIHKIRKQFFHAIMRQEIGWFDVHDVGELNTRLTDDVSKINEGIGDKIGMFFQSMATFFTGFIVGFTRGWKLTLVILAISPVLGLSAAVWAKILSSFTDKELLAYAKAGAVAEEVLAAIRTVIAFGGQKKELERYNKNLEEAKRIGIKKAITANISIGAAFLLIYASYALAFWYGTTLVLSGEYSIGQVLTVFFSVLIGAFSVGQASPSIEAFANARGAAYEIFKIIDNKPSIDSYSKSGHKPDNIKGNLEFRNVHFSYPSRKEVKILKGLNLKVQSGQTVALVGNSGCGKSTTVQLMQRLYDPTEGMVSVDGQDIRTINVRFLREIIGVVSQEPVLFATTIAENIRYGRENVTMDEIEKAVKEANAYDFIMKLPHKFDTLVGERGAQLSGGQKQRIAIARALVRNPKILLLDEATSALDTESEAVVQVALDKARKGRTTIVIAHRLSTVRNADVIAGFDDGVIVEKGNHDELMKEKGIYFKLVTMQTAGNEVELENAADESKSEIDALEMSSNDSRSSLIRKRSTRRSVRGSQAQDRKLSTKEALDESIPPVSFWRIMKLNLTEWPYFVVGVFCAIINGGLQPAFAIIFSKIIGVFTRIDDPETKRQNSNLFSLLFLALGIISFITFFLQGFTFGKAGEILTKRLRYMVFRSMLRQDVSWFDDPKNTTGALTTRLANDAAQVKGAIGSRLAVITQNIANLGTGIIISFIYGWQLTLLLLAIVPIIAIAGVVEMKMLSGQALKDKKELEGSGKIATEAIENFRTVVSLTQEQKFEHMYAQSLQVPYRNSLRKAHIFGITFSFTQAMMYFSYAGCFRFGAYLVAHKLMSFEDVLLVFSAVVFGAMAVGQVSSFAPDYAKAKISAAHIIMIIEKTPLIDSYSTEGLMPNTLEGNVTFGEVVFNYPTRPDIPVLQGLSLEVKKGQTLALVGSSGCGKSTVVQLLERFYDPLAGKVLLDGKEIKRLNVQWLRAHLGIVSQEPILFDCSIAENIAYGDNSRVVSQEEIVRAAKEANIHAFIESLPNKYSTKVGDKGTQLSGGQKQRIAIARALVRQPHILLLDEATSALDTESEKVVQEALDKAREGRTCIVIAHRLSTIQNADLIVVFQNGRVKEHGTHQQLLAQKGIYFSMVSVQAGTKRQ", "assay": "P-gp substrate status of the CBD metabolite", "format": "in vitro ADME", "description": "as §1"}, "BCRP": {"target": "T1, BCRP (Homo sapiens, UniProt Q9UNQ0)", "T1 sequence (Q9UNQ0 1-655)": "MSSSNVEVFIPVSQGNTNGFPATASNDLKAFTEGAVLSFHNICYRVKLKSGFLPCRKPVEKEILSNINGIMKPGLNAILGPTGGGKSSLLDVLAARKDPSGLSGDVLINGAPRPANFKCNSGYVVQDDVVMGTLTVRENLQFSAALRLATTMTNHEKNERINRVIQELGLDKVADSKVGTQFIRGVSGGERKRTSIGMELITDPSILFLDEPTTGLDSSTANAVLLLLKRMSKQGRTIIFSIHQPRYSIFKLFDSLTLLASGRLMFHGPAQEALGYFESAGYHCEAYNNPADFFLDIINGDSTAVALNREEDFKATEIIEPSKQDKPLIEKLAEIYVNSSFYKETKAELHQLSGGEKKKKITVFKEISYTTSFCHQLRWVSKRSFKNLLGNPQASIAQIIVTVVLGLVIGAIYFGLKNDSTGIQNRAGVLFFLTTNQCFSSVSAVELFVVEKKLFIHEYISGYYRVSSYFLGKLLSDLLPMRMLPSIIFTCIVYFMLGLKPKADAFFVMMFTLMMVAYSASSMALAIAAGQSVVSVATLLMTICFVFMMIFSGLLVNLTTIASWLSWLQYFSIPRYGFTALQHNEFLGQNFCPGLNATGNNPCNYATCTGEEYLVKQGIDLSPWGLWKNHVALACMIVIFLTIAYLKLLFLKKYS", "assay": "Inhibition of BCRP-mediated transport", "format": "in vitro ADME", "conditions": "at clinically relevant concentrations", "description": "as §1"}}, "note": "Read-outs that look alike come from different tables or passages of the source.", "data": [{"compound": "CO[C@H]1C[C@@H]2CC[C@@H](C)[C@@](O)(O2)C(=O)C(=O)N2CCCC[C@H]2C(=O)O[C@H]([C@H](C)C[C@@H]2CC[C@@H](OCCO)[C@H](OC)C2)CC(=O)[C@H](C)/C=C(\\C)[C@@H](O)[C@@H](OC)C(=O)[C@H](C)C[C@H](C)/C=C/C=C/C=C/1C", "note": "[Everolimus]", "values": [{"measurement": "Time to steady-state", "setting": "[1]", "value": "≤ 2", "unit": "weeks"}, {"measurement": "AUC(0-inf)", "setting": "clinical", "value": 216, "unit": "ng·h/mL"}, {"measurement": "AUC(0-t)", "setting": "clinical", "value": 95, "unit": "ng·h/mL"}, {"measurement": "Cmax", "setting": "clinical", "value": 18, "unit": "ng/mL"}, {"measurement": "Increase in midazolam AUC0-inf", "setting": "CYP3A4", "value": 30, "unit": "%"}, {"measurement": "Increase in midazolam Cmax", "setting": "CYP3A4", "value": 25, "unit": "%"}, {"measurement": "Everolimus AUC24, geometric mean±SD", "setting": "[2]; 2.5 mg of everolimus", "value": "570 ± 195", "unit": "ng·h/mL"}, {"measurement": "Everolimus Cmaxss, geometric mean±SD", "setting": "[2]; 2.5 mg of everolimus", "value": "62.1 ± 13.1", "unit": "ng/mL"}, {"measurement": "Everolimus Cminss, geometric mean±SD", "setting": "[2]; 2.5 mg of everolimus", "value": "13.6 ± 9.0", "unit": "ng/mL"}, {"measurement": "Everolimus AUC24, geometric mean±SD", "setting": "[2]; 5 mg of everolimus", "value": "716 ± 123", "unit": "ng·h/mL"}, {"measurement": "Everolimus Cmaxss, geometric mean±SD", "setting": "[2]; 5 mg of everolimus", "value": "114 ± 36", "unit": "ng/mL"}, {"measurement": "Everolimus Cminss, geometric mean±SD", "setting": "[2]; 5 mg of everolimus", "value": "17.4 ± 4.5", "unit": "ng/mL"}, {"measurement": "Everolimus tmax, median (range)", "setting": "[2]; 5 mg of everolimus", "value": 48, "unit": "min"}, {"measurement": "Everolimus AUC24", "setting": "[2]; 10 mg of everolimus", "value": 1470, "unit": "ng·h/mL"}, {"measurement": "Everolimus Cmaxss", "setting": "[2]; 10 mg of everolimus", "value": 139, "unit": "ng/mL"}, {"measurement": "Everolimus Cminss", "setting": "[2]; 10 mg of everolimus", "value": 16.5, "unit": "ng/mL"}]}, {"compound": "CC[C@H]1OC(=O)[C@H](C)[C@@H](O[C@H]2C[C@@](C)(OC)[C@@H](O)[C@H](C)O2)[C@H](C)[C@@H](O[C@@H]2O[C@H](C)C[C@H](N(C)C)[C@H]2O)[C@](C)(O)C[C@@H](C)C(=O)[C@H](C)[C@@H](O)[C@]1(C)O", "note": "[Erythromycin]", "values": [{"measurement": "Increase of the AUC of everolimus", "setting": "[3]", "value": 4.4, "unit": "fold"}, {"measurement": "Increase of the Cmax of everolimus", "setting": "[3]", "value": 2.0, "unit": "fold"}]}, {"compound": "C=C(C)[C@@H]1CCC(C)=C[C@H]1c1c(O)cc(CCCCC)cc1O", "note": "[CBD, Cannabidiol]", "values": [{"measurement": "Adverse effects caused by elevated levels", "setting": "[4]", "value": "transaminase elevation, rash, somnolence, sedation, lethargy, diarrhea, pyrexia, weight decreased, nasopharyngitis, irritability, oropharyngeal pain, and decreased appetite"}, {"measurement": "Effect on orally dosed midazolam PK parameters", "setting": "[5]", "value": "no clinically significant effect"}, {"measurement": "AUC(0-t)", "setting": "[6]; 5 mg/kg/day", "value": 241, "unit": "ng·h/mL"}, {"measurement": "AUC(0-t)", "setting": "[6]; 10 mg/kg/day", "value": 722, "unit": "ng·h/mL"}, {"measurement": "AUC(0-t)", "setting": "[6]; 20 mg/kg/day", "value": 963, "unit": "ng·h/mL"}, {"measurement": "AUC", "setting": "[6]; 25 mg/kg/day", "value": 2520, "unit": "ng·h/mL"}, {"measurement": "AUC", "setting": "[6]; 50 mg/kg/day", "value": 2730, "unit": "ng·h/mL"}]}, {"compound": "CC(=O)N1CCN(c2ccc(OCC3COC(Cn4ccnc4)(c4ccc(Cl)cc4Cl)O3)cc2)CC1", "note": "(stereo not drawn) [ketoconazole]", "values": [{"measurement": "Increase of the AUC of everolimus", "setting": "[3]", "value": 15, "unit": "fold"}, {"measurement": "Increase of the Cmax of everolimus", "setting": "[3]", "value": 3.9, "unit": "fold"}]}, {"compound": "C=C(C)[C@@H]1CCC(C(=O)O)=C[C@H]1c1c(O)cc(CCCCC)cc1O", "note": "[7-COOH-CBD, 7-carboxy-cannabidiol]", "values": [{"measurement": "Inhibition of transport mediated via BSEP", "setting": "BSEP", "value": "inhibitor"}, {"measurement": "P-gp substrate status", "setting": "P-gp", "value": "substrate for P-gp"}, {"measurement": "Inhibition of transport mediated via BCRP", "setting": "BCRP", "value": "inhibitor"}]}]}
